# Measurements: patent US20160326219A1, “OPTICALLY ACTIVATED RECEPTORS” (IST AUSTRIA (INSTITUTE OF SCIENCE AND TECHNOLOGY AUSTRIA), priority 2013, published 2016)
# Read-outs that look alike come from different tables or passages of the source.
# B1: GA-VfAU1-LOV-P: VfAU1-LOV incorporated into pGAVPO transcription factor (Gal4 DNA binding domain, transactivation domain) (protein)
# chain: MKLLSSIEQACDICRLKKLKCSKEKPKCAKCLKNNWECRYSPKTKRSPLTRAHLTEVESRLERLEPDYSLVKALQMAQQNFVITDASLPDNPIVYASRGFLTLTGYSLDQILGRNCRFLQGPETDPRAVDKIRNAITKGVDTSVCLLNYRQDGTTFWNLFFVAGLRDSKGNIVNYVGVQSKVSEDYAKLLVNEQNIEYKGVRTSNMLRRK
# modifications: left off: large carriers
# B2: AtPH2-LOV2: LOV domain of A. thaliana phototropin 2, residue 363 to 500 of P93025, SEQ ID NO: 4 (protein, listed as Arabidopsis thaliana)
# chain: DSWDLSDRERDIRQGIDLATTLERIEKNFVISDPRLPDNPIIFASDSFLELTEYSREEILGRNCRFLQGPETDQATVQKIRDAIRDQREITVQLINYTKSGKKFWNLFHLQPMRDQKGELQYFIGVQLDGSDHVEPLQ
# B3: CrPH-LOV1: LOV domain of C. reinhardtii phototropin, residue 16 to 133 of A8IXU7, SEQ ID NO: 6 (protein, listed as Chlamydomonas reinhardtii)
# chain: AGLRHTFVVADATLPDCPLVYASEGFYAMTGYGPDEVLGHNCRFLQGEGTDPKEVQKIRDAIKKGEACSVRLLNYRKDGTPFWNLLTVTPIKTPDGRVSKFVGVQVDVTSKTEGKALA
# B4: AtPH1-LOV2: LOV domain of A. thaliana phototropin 1, residue 449 to 586 of O48963, SEQ ID NO: 2 (protein, listed as Arabidopsis thaliana)
# chain: ESVDDKVRQKEMRKGIDLATTLERIEKNFVITDPRLPDNPIIFASDSFLELTEYSREEILGRNCRFLQGPETDLTTVKKIRNAIDNQTEVTVQLINYTKSGKKFWNIFHLQPMRDQKGEVQYFIGVQLDGSKHVEPVR
# Legend:
# [1] = biological target: T1, imFGFR1 (Mus musculus, UniProt P16092); experiment: Chemical stimulation of imFGFR1, MAPK luciferase reporter (HEK293 cells); format: cell-based, murine; conditions: 10 nM, FIG. 2b
# T1 construct: a single or both FKBP domains were deleted to yield constructs miFGFR1 and miFGFR1-ΔFKBP; myristoylation domain (N); expressed in transfected cells; host or cells: HEK293
# Procedure: (§1) Activation of the MAPK pathway was assayed with the PathDetect Elk1 trans-Reporting System (Agilent) consisting of an Elk1 phosphorylation-dependent trans-activator and a luciferase-based trans-reporter. Cells were transfected with 213.3 ng total DNA per well (receptor, trans-activator and trans-reporter at ratio of 1:3:60 or 1:30:600) using Lipofectamine 2000. Six h after transfection medium was replaced with CO2-independent reduced serum starve medium (Gibco/Life Technologies; supplemented with 0.5% FBS, 2 mM L-Glutamine, 100 U/ml penicilin and 0.1 mg/ml streptomycin) for 18 h at 37° C. Cells were transferred and were either kept under constant illumination for 8 h or were protected from light. Chemical stimulation of imFGFR1 followed the same procedure, except that 10 nM AP20187 ((Clackson 1998); ARIAD Pharmaceuticals, Cambridge, Mass.) were added before transfer to the stimulation incubator. After incubation, plates were washed once with PBS and luciferase was detected with standard, off-the-shelf reagents. These were either Luciferase 1000 Assay System (Promega, Mannheim, Germany) in combination with a microplate reader equipped with an injector (Tecan Infinite 200 Pro, Maennedorf, Switzerland), or ONE-Glo Assay System (Promega) in combination with a microplate reader not equipped with an injector (BioTek Synergy H1). These assay systems provide equivalent results.
# [2] = system: MAPK pathway; experiment: All optical evaluation of pharmacological compounds, luciferase signals of HEK293 cells expressing redOpto-rtrkB; format: cell-based, human; conditions: red light ~0.05 μW/mm^2, UO 10 μM, SEL 0.5 μM, PD 5 μM, IMA 0.5 μM, VEM 0.5 μM
# Procedure: Phycocyanobilin (PCB; Livchem Logistics GmbH, Frankfurt a.M., Germany) was dissolved in a dark room to a stock concentration of 10 mM in DMSO. Aliquots were stored in the dark at −20° C. Prior to experiments, cells were incubated with 50 μM PCB overnight in reduced serum starve medium at 37° C. PCB could also be applied to applied to living animals as it is non-toxic even in high doses (0.17% of diet or 10 mg/kg) (McCarty (2007).
# as §1, with “Chemical stimulation of imFGFR1 followed the same procedure, except that 10 nM AP20187 ((Clackson 1998); ARIAD Pharmaceuticals, Cambridge, Mass.) were added before transfer to the stimulation incubator.” left out, “These assay systems provide equivalent results.” left out
# For M38K cells, cell morphology was evaluated as described above but followed by automated image analysis. Phase contrast images (typically three images from two wells) were automatically analyzed. […] Cells were identified and measured in FIJI/ImageJ (Max Planck Society/National Institutes of Health; size limit: 40 to 600 pixel̂2, circularity limit: 0.01 to 1.00). […] For HEK293 cells, MAPK pathway activation was measured using luciferase as described above.
# [3] = system: M38K cells; experiment: All optical evaluation of pharmacological compounds / cell morphology, M38K cells stably expressing Opto-mFGFR1; format: cell-based, human; conditions: for Abrogation of light-induced morphology changes of M38K cells: Opto-mFGFR1 activated by blue light ~3 μW/mm^2, PD 5 μM, BIBF 0.5 μM, PON 1 μM, SEL 0.5 μM, UO 10 μM, MK 10 μM, LY 20 μM, automated image analysis
# From the text: M38K and SPC212, two malignant pleural mesothelioma cell lines, were maintained in RPMI1640 supplemented with 10% FBS. Telomerase-immortalized microvascular hBE cells were maintained in Clonetics EGM2 MV endothelial growth medium (Lonza, Wakersville, Md.) supplemented with 5% FBS. For retrovirus generation, Opto-mFGFR1 or mCherry as control was subcloned into pQCXIP (Clontech, Mountain View, Calif.) using EcoRI and NotI restriction enzymes. Viral particles were generated in HEK293 cells by co-transfection with the helper plasmids pVSV-G and p-gag-pol-gpt. Supernatants were used to transduce M38K, SPC212 or hBE cells grown to 50% confluency in 6-well plates. Cells were selected with 0.8 μg/ml puromycin for 10 d and transgene expression was verified by immunoblotting.
# 10^5 M38K cells were seeded in each well of 6-well plates. After 24 h, cells were stimulated for 1 h or kept in the dark. FGF2 (Sigma) or PD166866 (Pfizer Global Research and Development, New London, Conn.) were added as indicated. After additional 24 h, cells were photographed on the Nikon Ti300 microscope. For quantification of cell morphology, all cell perimeters in randomly selected sections of phase contrast images were traced and aspect ratios (defined as length of major axis divided by length of minor axis of a fitted ellipse) calculated with ImageJ software (National Institute of Health). Greater than 50 individual values contributed to each average.
# For M38K cells, cell morphology was evaluated as described above but followed by automated image analysis. Phase contrast images (typically three images from two wells) were automatically analyzed. Images were converted to greyscale, resized and divided into segments for local threshold correction (threshold was defined as most probably intensity multiplied by a constant factor of 0.85; Igor Pro, Wavemetrics, Lake Oswego, Oreg.). Cells were identified and measured in FIJI/ImageJ (Max Planck Society/National Institutes of Health; size limit: 40 to 600 pixel̂2, circularity limit: 0.01 to 1.00). Occasionally, outliers were removed manually. Typically 200 to 1800 individual values contributed to the averages of FIG. 9. For HEK293 cells, MAPK pathway activation was measured using luciferase as described above.
# [4] = high doses (0.17% of diet or 10 mg/kg), McCarty (2007); cited from earlier work
# [5] = system: luciferase reporter plasmid; experiment: Light-activated VfAU1-LOV transcription factor, luciferase reporter; format: cell-based; conditions: blue light ~3 μW/mm^2, FIG. 4b
# From the text: The plasmid pGAVPO (Y. Yang, East China University of Science and Technology) contains a Gal4 DNA binding domain, NcVV-LOV and a transactivation domain (Wang et al. 2012) (FIG. 4b). Blue-light activation of pGAVPO was detected with the luciferase reporter plasmid applied in MAPK pathways assays (see above; this plasmid contains multiple UAS sequences). VfAU1-LOV was amplified by PCR and oligonucleotides 24 and 25 (SEQ ID NO: 38 and 39, respectively) and inserted in pGAVPO using BglII and EcoRI restriction enzymes. Constructs was verified by DNA sequencing. Luciferase activation experiments were performed as described above except that mFGFR1 plasmids were replaced with 50 ng pGAVPO per well.
# [6] = biological target: LOV domains; conditions: cited from earlier work
# [7] = published half lives converted to lifetimes where necessary; cited from earlier work
# [8] = dark state, read-out: Estimated KD, Dark
# [9] = light state, read-out: Estimated KD, Light
# T1 sequence (P16092 with tags, fused parts or gaps): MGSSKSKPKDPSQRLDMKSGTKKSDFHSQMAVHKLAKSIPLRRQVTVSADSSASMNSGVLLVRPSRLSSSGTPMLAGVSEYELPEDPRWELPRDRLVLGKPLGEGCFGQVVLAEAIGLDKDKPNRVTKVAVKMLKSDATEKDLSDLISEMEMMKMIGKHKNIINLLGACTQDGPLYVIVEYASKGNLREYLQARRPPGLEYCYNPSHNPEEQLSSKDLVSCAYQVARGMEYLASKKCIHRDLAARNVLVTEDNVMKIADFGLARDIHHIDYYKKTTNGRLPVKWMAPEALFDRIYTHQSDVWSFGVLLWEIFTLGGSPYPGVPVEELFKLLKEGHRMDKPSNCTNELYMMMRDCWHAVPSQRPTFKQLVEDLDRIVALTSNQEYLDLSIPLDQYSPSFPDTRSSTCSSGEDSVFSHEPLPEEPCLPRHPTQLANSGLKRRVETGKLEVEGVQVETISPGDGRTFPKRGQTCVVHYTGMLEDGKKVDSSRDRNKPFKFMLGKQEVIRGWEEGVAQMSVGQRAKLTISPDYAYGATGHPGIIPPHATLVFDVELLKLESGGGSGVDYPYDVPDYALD
molecule,measurement,setting,value
CC[C@H](C(=O)N1CCCC[C@H]1C(=O)O[C@H](CCc1ccc(OC)c(OC)c1)c1cccc(OCC(=O)NCC(CNC(=O)COc2cccc([C@@H](CCc3ccc(OC)c(OC)c3)OC(=O)[C@@H]3CCCCN3C(=O)[C@@H](CC)c3cc(OC)c(OC)c(OC)c3)c2)CN(C)C)c1)c1cc(OC)c(OC)c(OC)c1 [AP20187],Activation of imFGFR1 (MAPK pathway),[1],activated
Cc1ccc(NC(=O)c2ccc(CN3CCN(C)CC3)cc2)cc1Nc1nccc(-c2cccnc2)n1 [Imatinib],Abrogation of MAPK pathway induction in response to red light,[2],not effective
NC1(c2ccc(-c3nc4ccn5c(=O)[nH]nc5c4cc3-c3ccccc3)cc2)CCC1 [MK2206],Abrogation of light-induced morphology changes of M38K cells,[3],not effective
COc1cc(OC)cc(-c2cc3cnc(N)nc3nc2NC(=O)NC(C)(C)C)c1 [PD166866],Light-induced changes in morphology after pre-treatment,"[3]; M38K cells with Opto-mFGFR1, blue light, FIGS. 6e and f",inhibited
same,Abrogation of light-induced morphology changes of M38K cells,[3],abrogated
same,Abrogation of MAPK pathway induction in response to red light,[2],not effective
N#CC(=C(/N)Sc1ccccc1N)/C(C#N)=C(/N)Sc1ccccc1N [UO126],Abrogation of light-induced morphology changes of M38K cells,[3],abrogated
same,Abrogation of MAPK pathway induction in response to red light,[2],abrogated
FGF2: a prominent FGFR ligand,Cell morphology response,"[3]; M38K cells, blue light (Opto-mFGFR1) or added growth factor",elongated morphology
Phycocyanobilin [PCB],Toxicity in living animals,[4],non-toxic
B1,Light activated transcriptional response (dimerization-dependent transcription factor),[5],light activated transcriptional responses
B2,Kd,[6]; [8],< 25 µM
same,Kd,[6]; [9],< 25 µM
same,Estimated excited state lifetime,[7],~7 s
B3,Kd,[6]; [8],< 55 µM
same,Kd,[6]; [9],< 55 µM
same,Estimated excited state lifetime,[7],~200^1 s
B4,Kd,[6]; [8],< 25 µM
same,Kd,[6]; [9],< 25 µM
same,Estimated excited state lifetime,[7],~40 s
